The source made the active and inactive calls.

From ChEMBL document CHEMBL1201862, “PubChem BioAssay data set” (2004) come the findings set out here.

One assay has as its target T1, Heat shock factor protein 1 (Mus musculus, UniProt P38532).
T1 sequence (P38532 whole entry): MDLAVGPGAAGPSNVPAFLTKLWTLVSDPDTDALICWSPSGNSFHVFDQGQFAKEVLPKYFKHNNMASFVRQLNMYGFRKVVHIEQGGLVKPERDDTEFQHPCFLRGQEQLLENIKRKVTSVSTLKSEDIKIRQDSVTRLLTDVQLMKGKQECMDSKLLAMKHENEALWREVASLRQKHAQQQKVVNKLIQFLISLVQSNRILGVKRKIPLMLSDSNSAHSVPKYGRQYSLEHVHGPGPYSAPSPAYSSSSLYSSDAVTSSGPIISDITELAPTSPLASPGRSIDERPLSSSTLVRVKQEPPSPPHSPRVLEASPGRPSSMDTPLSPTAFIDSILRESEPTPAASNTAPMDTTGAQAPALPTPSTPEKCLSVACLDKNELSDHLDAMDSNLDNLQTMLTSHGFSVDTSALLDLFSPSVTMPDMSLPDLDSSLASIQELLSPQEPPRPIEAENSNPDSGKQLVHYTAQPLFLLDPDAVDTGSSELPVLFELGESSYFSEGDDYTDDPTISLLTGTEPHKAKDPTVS
The experiment in a line: inhibition of MG132-induced HSE-luciferase signal, confirmation, cell-based, NIH3T3, luminescence, dose retest (AID 2382).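 Also: NIH3T3 fibroblasts with HSF1-driven luciferase reporter stressed by proteasome inhibitor MG132; luminescence from HSF1-driven luciferase expression after 8 hours of MG132 stress.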 In kind it is functional.
Settings: not given
For the compound `Cc1oc(C(=O)O)cc1COc1ccc2c3c(c(=O)oc2c1C)CCC3`, the EC50 was > 195 µM (not active).

With `Cc1cc(C)c2cc(CN(CCN(C)C)C(=O)Nc3ccccc3Cl)c(O)nc2c1`, the EC50 is reported as > 195 µM (not active).

With `COc1ccc2c(COC(=O)CCS(=O)(=O)c3ccc(C)cc3)cc(=O)oc2c1`, the EC50 was > 195 µM (not active).

Turning to `O=C(NC(=O)c1cccc(F)c1)OC[C@@H]1CCCN2CCCC[C@H]12`, the EC50 is > 195 µM (not active). The same measure, in the same setting: the same measure for `Cc1ccc(-c2nn[nH]n2)o1`: > 195 µM (not active). Regarding `Cc1nn(C(C)C(=O)NCCCc2ccccc2)c(=O)c2cc3occc3n12` (stereo not given), the EC50 was > 195 µM (not active). In the case of `Cc1ccc(C)c(NC(=O)CCc2nnc3ccc(NCc4ccco4)nn23)c1`, the EC50 is > 195 µM (not active).

As to `O=C(CSc1nnc(CNC(=O)c2cccs2)o1)NCc1ccc(F)cc1`, the EC50 is > 195 µM (not active). With `CCOC(=O)c1c(NC(=O)CN2CCCCC2)sc2c1CCC(C=O)=C2Cl`, the EC50 is reported as > 195 µM (not active). For the compound `COc1ccc2oc(=O)c(N3C(=O)c4ccccc4C3=O)cc2c1`, the EC50 was > 195 µM (not active). Same read-out and setting: the same measure for `COc1ccc(NC(=O)CCc2nnc3ccc(N4CCC(C)CC4)nn23)cc1OC`: > 195 µM (not active). Same read-out and setting: the value for `Cc1cccc(C)c1NC(=O)c1cccnc1` was > 195 µM (not active); that for `Cc1cc(C)nc(NNC2=CC(=[N+]3CCCCC3)CC(C)(C)C2)n1` was > 195 µM (not active); that for `CC1CCC2(CC1)N=C(N)Nc1nc3ccccc3n12` (stereo not given) was > 195 µM (not active). Turning to `Cc1onc(-c2ccccc2)c1C(=O)Nc1sc2c(c1C(N)=O)CCC2`, the EC50 was > 195 µM (not active).

`COc1cc(C2C(C#N)=C(N)N(N(C)C)C3=C2C(=O)CC(C)(C)C3)ccc1O` (stereo not given): the EC50 is reported as > 195 µM (not active). Regarding `CCOc1ccccc1N1CCN(CC(=O)NC(C)c2ccccc2)CC1` (stereo not given), the EC50 is > 195 µM (not active).

As to `CCOc1ccc(/C=N/NC(=O)C(O)c2ccccc2)c(O)c1` (stereo not given), the EC50 is > 195 µM (not active). As to `COc1ccc(/N=C2/SC(C(=O)N3CCN(c4ccccc4)CC3)CC(=O)N2C)cc1` (stereo not given), the EC50 is > 195 µM (not active).

In another assay the target is Cytochrome P450 2C19 (Homo sapiens, UniProt P33261). Nature of the assay: Cytochrome panel assay with activity outcomes. Panel member name: p450-cyp2c19 Compounds with AC50 equal or less than 10 uM are considered active. Format: functional. As to conditions: read-out: AC50.
Sequence of Cytochrome P450 2C19 (P33261 whole entry): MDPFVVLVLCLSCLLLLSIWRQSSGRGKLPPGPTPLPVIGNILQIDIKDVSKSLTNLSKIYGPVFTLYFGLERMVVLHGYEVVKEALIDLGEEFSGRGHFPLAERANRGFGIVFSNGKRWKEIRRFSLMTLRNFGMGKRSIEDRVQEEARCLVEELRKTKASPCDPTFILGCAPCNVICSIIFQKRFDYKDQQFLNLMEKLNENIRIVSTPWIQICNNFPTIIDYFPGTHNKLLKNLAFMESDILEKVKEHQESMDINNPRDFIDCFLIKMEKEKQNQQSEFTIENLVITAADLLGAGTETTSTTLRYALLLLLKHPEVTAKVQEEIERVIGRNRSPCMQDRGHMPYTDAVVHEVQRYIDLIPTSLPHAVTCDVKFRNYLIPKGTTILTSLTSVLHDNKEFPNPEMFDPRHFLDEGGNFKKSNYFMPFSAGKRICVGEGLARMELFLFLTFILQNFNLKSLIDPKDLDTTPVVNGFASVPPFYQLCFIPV
The AC50 is the midpoint of the concentration-response curve, whichever way the signal moves. Turning to `CCOC(=O)c1cnn(-c2cc(Oc3ccccc3)ncn2)c1N`, the concentration at half-maximal activity (AC50) was 31.6 µM (inconclusive). In the case of `C[C@@H](Cc1ccccc1)NCCC(c1ccccc1)c1ccccc1`, the AC50 was 7.94 µM (inconclusive).

On to `CCN1CC=C2C(C#N)=C(N)C(C#N)(C#N)[C@H](c3ccoc3)[C@H]2C1`, for which the AC50 was 39.8 µM (inconclusive). On the same count and under the same terms, the same measure for `CC1CCC2(CC1)N=C(N)Nc1nc3ccccc3n12` (stereo not given): 17.8 µM (inconclusive); for `COc1ccc(-n2c(=O)c(CCc3ccccc3)nc3cnc(N4CCOCC4)nc32)cc1`: 25.1 µM (inconclusive).

A further assay deals with T2, Corticotropin-releasing factor receptor 2/Corticotropin-releasing factor-binding protein (Homo sapiens, UniProt P24387+Q13324).
T2 sequence (Q13324 whole entry): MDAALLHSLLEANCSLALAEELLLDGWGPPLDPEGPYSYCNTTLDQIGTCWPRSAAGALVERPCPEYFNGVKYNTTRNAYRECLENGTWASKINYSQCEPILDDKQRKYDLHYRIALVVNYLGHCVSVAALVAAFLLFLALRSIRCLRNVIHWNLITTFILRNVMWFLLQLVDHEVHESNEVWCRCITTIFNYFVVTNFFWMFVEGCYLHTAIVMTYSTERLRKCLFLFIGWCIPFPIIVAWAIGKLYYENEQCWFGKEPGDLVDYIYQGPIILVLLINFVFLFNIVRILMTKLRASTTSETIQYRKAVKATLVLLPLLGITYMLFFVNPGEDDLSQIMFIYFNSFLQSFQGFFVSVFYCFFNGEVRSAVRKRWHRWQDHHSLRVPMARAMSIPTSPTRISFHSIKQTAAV
T2 sequence (P24387 whole entry): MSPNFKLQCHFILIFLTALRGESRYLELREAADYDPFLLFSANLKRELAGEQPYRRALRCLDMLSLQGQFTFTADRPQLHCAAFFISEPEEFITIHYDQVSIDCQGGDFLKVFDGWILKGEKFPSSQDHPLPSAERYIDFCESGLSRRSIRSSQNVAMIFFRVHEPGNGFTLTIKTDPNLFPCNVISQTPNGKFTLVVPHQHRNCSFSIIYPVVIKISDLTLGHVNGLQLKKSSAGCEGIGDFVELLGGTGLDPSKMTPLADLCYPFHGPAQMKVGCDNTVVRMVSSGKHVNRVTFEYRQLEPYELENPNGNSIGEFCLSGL
The experiment in a line: activators of CRF receptor 2 with binding protein – uHTS hits, confirmation (AID 602473). In kind it is functional. As to conditions: read-out: EC50_Mean.
For the compound `Cc1ccc2c(c1)N(C(=O)CCC(=O)N1CCN(c3ccccn3)CC1)CCO2`, the EC50 is > 53 µM (inactive). As for `CC1(C)CC2=Nc3ccccc3NCC2=C(O)C1`, the EC50 was > 53 µM (inactive). Same read-out and setting: the value for `CC(Oc1ccc(Br)cc1)C(=O)Nc1ccc(S(=O)(=O)NC2=NCCCCC2)cc1` (stereo not given) was 4.66 µM (active); that for `CCOc1ccc(C2=CC(c3ccccc3)n3ncnc3N2)cc1` (stereo not given) was > 53 µM (inactive).

On to `Cc1nn(CC(=O)N(C)C2(C#N)CCCCC2)c(C)c1[N+](=O)[O-]`, for which the EC50 was > 53 µM (inactive). With `Cc1ccc(S(=O)(=O)NCC(=O)N(CC(=O)NCc2ccco2)Cc2ccccc2)cc1`, the EC50 is 10.1 µM (active).

The target in the next assay is T3, Rac GTPase-activating protein 1 (Homo sapiens, UniProt Q9H0H5).
T3 sequence (Q9H0H5 whole entry): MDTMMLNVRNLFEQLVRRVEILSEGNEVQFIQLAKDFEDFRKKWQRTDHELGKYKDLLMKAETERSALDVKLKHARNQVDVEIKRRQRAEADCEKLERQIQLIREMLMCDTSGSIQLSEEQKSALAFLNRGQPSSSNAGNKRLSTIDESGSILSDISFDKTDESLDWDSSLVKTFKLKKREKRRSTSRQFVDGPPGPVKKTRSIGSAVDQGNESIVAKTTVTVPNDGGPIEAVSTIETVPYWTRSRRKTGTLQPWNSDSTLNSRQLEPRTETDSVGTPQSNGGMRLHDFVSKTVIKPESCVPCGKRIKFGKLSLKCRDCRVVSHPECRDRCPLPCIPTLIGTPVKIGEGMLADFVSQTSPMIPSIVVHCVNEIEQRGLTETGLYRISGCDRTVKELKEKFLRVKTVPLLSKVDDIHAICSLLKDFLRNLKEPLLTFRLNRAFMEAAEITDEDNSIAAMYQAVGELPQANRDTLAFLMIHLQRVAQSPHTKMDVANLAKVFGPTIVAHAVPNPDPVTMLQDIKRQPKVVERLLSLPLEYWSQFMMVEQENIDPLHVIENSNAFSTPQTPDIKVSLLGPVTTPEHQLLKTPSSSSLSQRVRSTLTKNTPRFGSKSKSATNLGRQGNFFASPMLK
The experiment in a line: MgcRacGAP GTPase-activating activity inhibitors, confirmation, biochemical, ADP Hunter fluorescence, primary and confirmatory (AID 624330). Format: functional.
Settings: not given
One may read the IC50 as the point on the concentration scale where inhibition reaches its midpoint. In the case of `COc1ccc(CN(C)CCc2ccccn2)cc1OC`, the IC50 is 74.6 µM (active). With `CCOC(=O)C1CCN(C2=NC(=O)/C(=C/c3ccc(O)cc3)S2)CC1`, the IC50 is 21.2 µM (active). The same measure, in the same setting: the same measure for `O=C(Cc1coc2cc(O)ccc12)NNC(=O)c1cccs1`: 32.7 µM (active); for `COc1cc(/C=C/C(=O)OCC(=O)NCc2ccc(F)cc2)ccc1O`: 36.3 µM (active); for `COc1cc(/C=C/c2nc(O)c3ccccc3n2)ccc1O`: 41.4 µM (active). Take `COc1ccc(NC2CCCN(C(=O)COc3ccc(C(C)=O)cc3)C2)cc1` (stereo not given): the IC50 was 84 µM (active). With `C=CCn1c(N/N=C/c2ccc(O)cc2)nc2ccccc2c1=O`, the IC50 is 46.8 µM (active). As to `COCCNC(=O)Cn1cc(/C=N/NC(=O)c2ccc(Oc3ccc(O)cc3)cc2)c2ccccc21`, the IC50 is 53.3 µM (active). As for `COc1cc(/C=N/Nc2ccc(C(F)(F)F)cn2)ccc1O`, the IC50 is 36.3 µM (active).

The target in a further assay is T4, Cytochrome P450 1A2 (Homo sapiens, UniProt P05177).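 Also: PubChem cytochrome P450 panel assay, CYP1A2 panel member.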
T4 sequence (P05177 whole entry): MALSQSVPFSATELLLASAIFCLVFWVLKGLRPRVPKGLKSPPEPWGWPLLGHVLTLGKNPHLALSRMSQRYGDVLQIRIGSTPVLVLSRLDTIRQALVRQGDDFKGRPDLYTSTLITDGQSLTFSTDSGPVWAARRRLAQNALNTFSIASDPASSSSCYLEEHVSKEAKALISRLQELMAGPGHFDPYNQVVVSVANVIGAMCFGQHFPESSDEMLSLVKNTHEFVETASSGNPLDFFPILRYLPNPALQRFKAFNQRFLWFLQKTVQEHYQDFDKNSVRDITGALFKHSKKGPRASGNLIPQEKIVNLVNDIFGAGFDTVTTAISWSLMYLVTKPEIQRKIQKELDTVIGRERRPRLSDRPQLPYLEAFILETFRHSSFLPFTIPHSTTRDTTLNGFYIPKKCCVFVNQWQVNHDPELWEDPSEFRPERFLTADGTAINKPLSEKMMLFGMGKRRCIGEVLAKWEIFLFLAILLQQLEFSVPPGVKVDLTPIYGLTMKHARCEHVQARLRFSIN
Settings: not given
Turning to `CCOC(=O)c1cnn(-c2cc(Oc3ccccc3)ncn2)c1N`, the AC50 was 14.1 µM (inconclusive).

On to `C[C@@H](Cc1ccccc1)NCCC(c1ccccc1)c1ccccc1`, for which the AC50 is 15.8 µM (inconclusive). Regarding `CCN1CC=C2C(C#N)=C(N)C(C#N)(C#N)[C@H](c3ccoc3)[C@H]2C1`, the concentration at half-maximal activity (AC50) is 39.8 µM (inconclusive).

As for `CC1CCC2(CC1)N=C(N)Nc1nc3ccccc3n12` (stereo not given), the AC50 is 12.6 µM (inconclusive). Turning to `COc1ccc(-n2c(=O)c(CCc3ccccc3)nc3cnc(N4CCOCC4)nc32)cc1`, the AC50 is 15.8 µM (inconclusive). As for `CSc1nc(O)c2c(n1)N=C(C)/C(=C(/O)OC(C)C)C2c1ccncc1` (stereo not given), the AC50 is 20 µM (inconclusive).
